For one assay, the system named is Sprague Dawley rats. Kind of assay: 5-HT behavioural syndrome (flat body posture, forepaw treading) in rats. To be noted: for behavioural score FBP (A) VEH / behavioural score FT (A) VEH: max score 10. It counts as in vivo, rat. The procedure: The experiments were performed on male Albino Swiss mice (23–25 g) and Sprague Dawley rats (200–250 g) from Charles River, Germany as well as TPH2-Cre-ER^T2 x flx-5-HT1A-flx-YFP mice from Jackson Labs, Bangor ME and the Hen lab, respectively. The animals were kept under standard laboratory conditions with respect to lighting (light phase 7:00–19:00) and temperature (19–21 °C). Food and water were freely available. Each experimental group consisted of eight to ten animals. All of the animals were experimentally naive and were used only once in each test. The experiments were performed during the light period (9:00–14:00 h). All of the procedures were conducted according to the guidelines of the National Institutes of Health Animal Care and Use Committee and were approved by the Ethics Committees of the Institute of Pharmacology, Polish Academy of Sciences in Krakow and the Animal Care Committee, University of Ottawa.
Zn (all doses refer to mg Zn/kg) was given as either Zn hydroaspartate (Farmapol, Poland) or Zn chloride (Sigma-Aldrich) and was dissolved in 0.9 % NaCl and administered intraperitoneally (i.p.). 8-OH-DPAT and WAY-100635 were dissolved in aqua pro-injection and were administered subcutaneously (s.c.). Controls were treated with the appropriate diluent, which was indicated as VEH on the graphs and in the tables.
The experiments were conducted according to previously published procedure, with a modification to the ranked intensity scale. Briefly, the rats were individually placed in cages (30×25×25 cm) 5 min before tested compounds were injected. Forepaw treading (FT) and flat body posture (FBP) were scored using a ranked intensity scale, where 0=absent, 1=equivocal and 2=present. The Zn (2, 5, 7.5 and 11.5 mg Zn/kg, given as a Zn hydroaspartate)-induced behavioural syndrome was scored for each animal 3, 6, 9, 12 and 15 min after the Zn treatment. Each observation session lasted for 45 s. The maximum score, which was summed over 5 observation periods, was 10 for each symptom/rat. The effect of Zn on the behavioural syndrome induced by 8-OH-DPAT (5 mg/kg) was scored using the same scale. Zn was administered 60 min before 8-OH-DPAT, and the animals were scored 3, 6, 9, 12 and 15 min after the 8-OH-DPAT treatment.

A short description of the next assay: Body temperature in mice. To be noted: Zn 2 and 5 mg/kg i.p., 30 and 60 min after administration. The class given is in vivo, mouse. The procedure:
The experiments were performed on male Albino Swiss mice (23-25 g) and Sprague Dawley rats (200-250 g) from Charles River, Germany as well as […]-flx-YFP mice from Jackson Labs, Bangor ME and the Hen lab, respectively. The animals were kept under standard laboratory conditions with respect to lighting (light phase 7:00-19:00) and temperature (19-21 °C). Food and water were freely available. Each experimental group consisted of eight to ten animals. All of the animals were experimentally naive and were used only once in each test. The experiments were performed during the light period (9:00-14:00 h). All of the procedures were conducted according to the guidelines of the National Institutes of Health Animal Care and Use Committee and were approved by the Ethics Committees of the Institute of Pharmacology, Polish Academy of Sciences in Krakow and the Animal Care Committee, University of Ottawa. […] Controls were treated with the appropriate diluent, which was indicated as VEH on the graphs and in the tables. […] The results were expressed as a change in body temperature with respect to the basal body temperature, which was measured at the beginning of the experiments.

Assay [1] relates to 5-HT1A autoreceptor KO mice. Put plainly: Forced swim test (FST) in wild-type and 5-HT1A autoreceptor KO mice. Conditions: Zn 5 mg/kg 30 min before FST. The class given is in vivo, mouse. From the text: A conditional knockout approach was used to eliminate the 5-HT1AR in the raphe nuclei in adult mice. To create the conditional 5-HT1AR knockout mice, a TPH2-Cre-ER^T2 mouse line was crossed with a flx-5-HT1A-YFP mouse line. The TPH2-Cre-ER^T2 confers specificity such that only serotonin neurons, which express tryptophan hydroxylase 2 (TPH2), can express Cre recombinase to knockout the 5-HT1AR gene and allow for […] expression. Once the mice reached adulthood (approximately 5–6 postnatal weeks), tamoxifen (180 mg/kg) was injected i.p. every day for five consecutive days (the tamoxifen binds to the ER^T2 domain and enables Cre to enter the nucleus where it can excise the 5-HT1AR gene, allowing for YFP expression as a marker of recombination). The mice were then left undisturbed for at least 14 days to allow for recombination and the turnover of endogenous 5-HT1ARs.
The behaviour of the mice in the water was recorded using a video camera. The test was performed under red lighting. The cylinder was filled with almost 4 l of water, to a depth that exceeded the distance to which the tail could extend, so the mouse could not balance on its tail at the bottom of the cylinder. […] The mice were placed in the individual glass cylinder (22 cm diameter×37 cm high) for a standard 6-min test; however, the total duration of immobility from the last 4 min of the test was analysed. […]

The mark [2] stands for this setting: Zn 2 mg/kg 60 min before 8-OH-DPAT 5 mg/kg.
Where [3] appears, read: Zn 5 mg/kg 60 min before 8-OH-DPAT 5 mg/kg.
The mark [4] stands for this setting: Zn 7.5 mg/kg 60 min before 8-OH-DPAT 5 mg/kg.
The mark [5] stands for this setting: Zn 11.5 mg/kg 60 min before 8-OH-DPAT 5 mg/kg.

Each structure is given as a SMILES string.

Here are results for one compound from PMC5104769, “Concentration-Dependent Dual Mode of Zn Action at Serotonin 5-HT1A Receptors: In Vitro and In Vivo Studies” (Molecular neurobiology, 2015).

On to `[Zn+2]` [Zn, Zinc], for which the “effect on 8-OH-DPAT-induced FBP and FT (in words)” value in the assay with Sprague Dawley rats (FBP at 11.5 mg/kg, FT at 7.5 and 11.5 mg/kg Zn) was “blocked the 8-OH-DPAT-induced FBP and FT”. Besides, the “behavioural score FBP (B) 8-OH-DPAT” value with Sprague Dawley rats (setting [2]) came out at 7.7±0.3; in the assay on Sprague Dawley rats (setting [3]), 7.5±0.8; in the assay on Sprague Dawley rats (setting [4]) it was 7.0±0.3; with Sprague Dawley rats (setting [5]) it was 3.4±0.6. Further, the “behavioural score FT (B) 8-OH-DPAT” value in the assay with Sprague Dawley rats (setting [2]) was found to be 7.1±0.6; in the assay on Sprague Dawley rats (setting [3]), 7.5±0.5; with Sprague Dawley rats (setting [4]) it was 5.0±0.6; in the assay with Sprague Dawley rats (setting [5]), 0.4±0.2. Moreover, the “behavioural score FBP (A) VEH” value with Sprague Dawley rats (Zn 2 mg/kg alone) came out at 0.2±0.2; in the assay with Sprague Dawley rats (Zn 5 mg/kg alone) it was 0.3±0.3; in the assay with Sprague Dawley rats (Zn 7.5 mg/kg alone), 0.5±0.5; with Sprague Dawley rats (Zn 11.5 mg/kg alone), 0.5±0.2. Also, the “behavioural score FT (A) VEH” value in the assay on Sprague Dawley rats (Zn 2 mg/kg alone) is 0.3±0.2; with Sprague Dawley rats (Zn 5 mg/kg alone), 0.2±0.2; in the assay with Sprague Dawley rats (Zn 7.5 mg/kg alone), 0.2±0.2; in the assay with Sprague Dawley rats (Zn 11.5 mg/kg alone), 0.2±0.2. Besides, the “induction of FBP or FT (in words)” value with Sprague Dawley rats (Zn 2, 5, 7.5 and 11.5 mg/kg alone) is recorded as “did not induce FBP or FT”. Moreover, the “change in body temperature” value in “Body temperature in mice” was “significantly and dose-dependently decreased body temperature”. The “decrease in the immobility time” value in assay [1] (5-HT1A autoreceptor KO mice, vs VEH-treated KO mice) is recorded as 30%. Besides, the “immobility time in the FST” value in assay [1] (wild-type mice) is given as “significant decrease in immobility time”.
